Where two headings read alike, the source gives them in different places.
Tested on: compound-treated mice
Assay: Neuropharmacological assay (SmartCube): behavioral activity signature and minimal effective dose
Assay type: in vivo
Details: for minimal effective dose: Mus musculus, ip; for AD: ADHD (probability of activity signature) / AG: analgesic (probability of activity signature) / AX: anxiolytic (probability of activity signature) / CE: cognitive enhancer (probability of activity signature) / DP: anti-depressant (probability of activity signature) / MS: mood stabilizer (probability of activity signature) / PS: anti-psychotic (probability of activity signature) / SD: sedative hypnotic (probability of activity signature) / UN: uncharacterized CNS activity (probability of activity signature): i.p. 15 min before test, most efficacious dose(s)
Text: Neurosci. 2011 Sep. 9; 5:103 (doi: 10.3389/fnins.2011.00103) (“Roberds”). As reported in Roberds, because psychiatric diseases generally result from disorders of cell-cell communication or circuitry, intact systems are useful in detecting improvement in disease-relevant endpoints. These endpoints are typically behavioral in nature, often requiring human observation and interpretation. To facilitate testing of multiple compounds for behavioral effects relevant to psychiatric disease, PsychoGenics, Inc. (Tarrytown, N.Y., “PGI”) developed SmartCube™, an automated system in which behaviors of compound-treated mice are captured by digital video and analyzed with computer algorithms. (D. Brunner et al., Drug Discov. Today 2002, 7:S107-S112). PGI Analytical Systems uses data from SmartCube™ to compare the behavioral signature of a test compound to a database of behavioral signatures obtained using a large set of diverse reference compounds. (The composition of the database as well as validation of the method is further described in Roberds). In this way, the neuropharmacological effects of a test compound can be predicted by similarity to major classes of compounds, such as antipsychotics, anxiolytics and antidepressants.
The SmartCube™ system produces an activity signature indicating the probability that the activity of the test compound at the administered dose matches a given class of neuropharmacological agents. (See, e.g., Roberds, FIGS. 2 and 3). The test compound is simultaneously compared against multiple classes of agents; thus, a separate probability is generated for each behavioral effect measured (e.g., anxiolytic activity, analgesic activity, etc.). In the table below, these probabilities are reported for each behavioral effect measured as follows:
where LOQ is the limit of quantification.
Provided compounds were dissolved in a mixture of Pharmasolve™ (N-methyl-2-pyrrolidone), polyethylene glycol and propylene glycol, and were injected i.p. 15 min. before the behavioral test. For each compound, injections were administered at 3 different doses. For each behavioral effect measured, results for the most efficacious dose(s) are presented. In the table below, DP: anti-depressant; AX: anxiolytic; SD: sedative hypnotic; PS: anti-psychotic; MS: mood stabilizer; AD: ADHD; CE: cognitive enhancer; AG: analgesic; UN: uncharacterized CNS activity.
The potency of many of the compounds in the table was also determined in the SmartCube™ system. Test compounds were routinely examined at dose levels of 0.3, 1, 3, 10 and 30 mg per kg (mpk), although the dose range was increased or decreased if necessary to obtain a full dose response curve. A compound's minimal effective dose (MED) is a measure of the compounds potency. The MED was defined as the dose (in mpk) having 50% or more total activity in SmartCube.

[1] = MED = dose having 50% or more total activity, read-out: Potency: minimal effective dose (MED), binned
[2] = MED = dose having 50% or more total activity, read-out: Potency: minimal effective dose (MED)

SMILES | minimal effective dose [1] | AD: ADHD (probability of activity signature) | AG: analgesic (probability of activity signature) | AX: anxiolytic (probability of activity signature) | CE: cognitive enhancer (probability of activity signature) | DP: anti-depressant (probability of activity signature) | MS: mood stabilizer (probability of activity signature) | PS: anti-psychotic (probability of activity signature) | SD: sedative hypnotic (probability of activity signature) | UN: uncharacterized CNS activity (probability of activity signature) | minimal effective dose [2] | Potency: minimal effective dose (MED), binned (MED = dose having 50% or more total activity)
CCN(C)C(=O)Oc1ccc2c(c1)C(N(C)C)COC2.Cl (stereo not shown) [Example 284] | 10 to 30 mg/kg | + (LOQ ≤ + <5%) | + (LOQ ≤ + <5%) | ++ (5% ≤ ++ <25%) | + (LOQ ≤ + <5%) | ++ (5% ≤ ++ <25%) | +++ (25% ≤ +++ <50%) | ++ (5% ≤ ++ <25%) | ++ (5% ≤ ++ <25%) | + (LOQ ≤ + <5%) |  | 
Cc1ccc2c(c1)COCC2N.Cl (stereo not shown) [Example 4] |  | + (LOQ ≤ + <5%) | ++ (5% ≤ ++ <25%) | +++ (25% ≤ +++ <50%) | ++ (5% ≤ ++ <25%) | ++ (5% ≤ ++ <25%) | + (LOQ ≤ + <5%) | ++ (5% ≤ ++ <25%) | ++ (5% ≤ ++ <25%) | + (LOQ ≤ + <5%) | 10 to 30 mg/kg | 
C[C@@H]1OCc2ccc(F)cc2[C@H]1N [Example 184] |  | + (LOQ ≤ + <5%) | + (LOQ ≤ + <5%) | ++ (5% ≤ ++ <25%) | ++ (5% ≤ ++ <25%) | ++ (5% ≤ ++ <25%) | + (LOQ ≤ + <5%) | ++ (5% ≤ ++ <25%) | + (LOQ ≤ + <5%) | ++++ (50% ≤ ++++) |  | A (≤3 mpk)
C[C@H]1OCc2ccccc2[C@H]1N (single isomer, unassigned) [Example 154] |  | + (LOQ ≤ + <5%) | ++ (5% ≤ ++ <25%) | ++ (5% ≤ ++ <25%) | ++ (5% ≤ ++ <25%) | + (LOQ ≤ + <5%) | + (LOQ ≤ + <5%) | ++ (5% ≤ ++ <25%) | ++ (5% ≤ ++ <25%) | ++++ (50% ≤ ++++) | 3 to 10 mg/kg | 
C[C@H]1OCc2c(F)cccc2[C@@H]1N.Cl [Example 214] | 3 to 10 mg/kg | ++ (5% ≤ ++ <25%) | ++ (5% ≤ ++ <25%) | ++ (5% ≤ ++ <25%) | ++ (5% ≤ ++ <25%) | ++ (5% ≤ ++ <25%) | + (LOQ ≤ + <5%) | ++ (5% ≤ ++ <25%) | ++ (5% ≤ ++ <25%) | ++++ (50% ≤ ++++) |  | 
CCC[C@@H]1OCc2ccccc2[C@@H]1N [Example 250] | 3 to 10 mg/kg | ++ (5% ≤ ++ <25%) | + (LOQ ≤ + <5%) | ++ (5% ≤ ++ <25%) | + (LOQ ≤ + <5%) | + (LOQ ≤ + <5%) | ++ (5% ≤ ++ <25%) | ++ (5% ≤ ++ <25%) | ++ (5% ≤ ++ <25%) | + (LOQ ≤ + <5%) |  | 
CCN(C)C(=O)Oc1ccc2c(c1)CO[C@@H](C)[C@H]2N(C)C.Cl [Example 285] | 3 to 10 mg/kg | ++ (5% ≤ ++ <25%) | + (LOQ ≤ + <5%) | ++ (5% ≤ ++ <25%) | + (LOQ ≤ + <5%) | ++ (5% ≤ ++ <25%) | ++++ (50% ≤ ++++) | ++++ (50% ≤ ++++) | + (LOQ ≤ + <5%) | ++ (5% ≤ ++ <25%) |  | 
Cc1ccc2c(c1)C(N(C)C)CCOC2.Cl (stereo not shown) [Example 62] |  | + (LOQ ≤ + <5%) | ++ (5% ≤ ++ <25%) | ++ (5% ≤ ++ <25%) | +++ (25% ≤ +++ <50%) | ++ (5% ≤ ++ <25%) | ++ (5% ≤ ++ <25%) | ++ (5% ≤ ++ <25%) | + (LOQ ≤ + <5%) | ++++ (50% ≤ ++++) | 3 to 10 mg/kg | 
C[C@H]1OCc2cc(Cl)ccc2[C@@H]1N.Cl [Example 94] |  | + (LOQ ≤ + <5%) | ++ (5% ≤ ++ <25%) | ++ (5% ≤ ++ <25%) | + (LOQ ≤ + <5%) | + (LOQ ≤ + <5%) | + (LOQ ≤ + <5%) | + (LOQ ≤ + <5%) | + (LOQ ≤ + <5%) | ++ (5% ≤ ++ <25%) | 10 to 30 mg/kg | 
Cc1ccc2c(c1)CO[C@H](C)[C@@H]2N [Example 190] | 3 to 10 mg/kg | + (LOQ ≤ + <5%) | + (LOQ ≤ + <5%) | ++ (5% ≤ ++ <25%) | ++ (5% ≤ ++ <25%) | + (LOQ ≤ + <5%) | + (LOQ ≤ + <5%) | ++ (5% ≤ ++ <25%) | ++ (5% ≤ ++ <25%) | ++++ (50% ≤ ++++) |  | 
CC[C@H]1OCc2ccc(C)cc2[C@@H]1N (single isomer, unassigned) [Example 177] | < 3 mg/kg | + (LOQ ≤ + <5%) | ++ (5% ≤ ++ <25%) | ++++ (50% ≤ ++++) | ++ (5% ≤ ++ <25%) | + (LOQ ≤ + <5%) | + (LOQ ≤ + <5%) | ++ (5% ≤ ++ <25%) | + (LOQ ≤ + <5%) | ++++ (50% ≤ ++++) |  | 
CN[C@@H]1COCc2cccc(C)c21 (single isomer, unassigned) [Example 137] |  | + (LOQ ≤ + <5%) | ++ (5% ≤ ++ <25%) | ++ (5% ≤ ++ <25%) | ++ (5% ≤ ++ <25%) | + (LOQ ≤ + <5%) | + (LOQ ≤ + <5%) | ++ (5% ≤ ++ <25%) | + (LOQ ≤ + <5%) | +++ (25% ≤ +++ <50%) | 3 to 10 mg/kg | 
CC(C)C[C@H]1OCc2ccccc2[C@@H]1N [Example 224] | 10 to 30 mg/kg | + (LOQ ≤ + <5%) | ++ (5% ≤ ++ <25%) | ++ (5% ≤ ++ <25%) | +++ (25% ≤ +++ <50%) | + (LOQ ≤ + <5%) | + (LOQ ≤ + <5%) | + (LOQ ≤ + <5%) | ++ (5% ≤ ++ <25%) | ++ (5% ≤ ++ <25%) |  | 
